Results from patent publication US12077503B2, “Substituted cyclic amides and their use as herbicides” (FMC CORPORATION, priority 2015, dated 2024).

Key:
Format in all cases: in vivo
[1] = system: barnyardgrass (Echinochloa crus-galli); assay: Test G Pre-Emergence Protocol; settings: Echinochloa crus-galli, pre-emergence, 312 h, evaluated after 13 days; for pest or weed control at 15.625 g/ha: 15.625 g ai/ha, read-out: Barnyard grass damage rating (100=total damage to plant; 0=no damage to plant); for pest or weed control at 62.5 g/ha: 62.5 g ai/ha, 100=total damage to plant, 0=no damage to plant, read-out: plant damage rating, Barnyardgrass; for pest or weed control at 250 g/ha: 250 g ai/ha, read-out: Barnyardgrass damage rating (100=total damage to plant; 0=no damage to plant)
Summary of the method: (§1)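 Scores are visual damage ratings from 0 (no damage) to 100 (total plant kill), taken 13 days after treatment. Compound was sprayed one day post-sowing at 15.625, 62.5 or 250 g/ha in 50:50 acetone/water with 0.5% Tween 20.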

corn (Zea mays) [2] = assay: Test G Pre-Emergence Protocol; settings: Zea mays, pre-emergence, 312 h, evaluated after 13 days; for plant injury at 15.625 g/ha: 15.625 g ai/ha; for plant injury at 15.625 g/ha / plant injury at 250 g/ha: read-out: Corn damage rating (100=total damage to plant; 0=no damage to plant); for plant injury at 62.5 g/ha: 62.5 g ai/ha, 100=total damage to plant, 0=no damage to plant, read-out: plant damage rating, Corn; for plant injury at 250 g/ha: 250 g ai/ha
Summary of the method: as §1

[3] = system: giant foxtail (Setaria faberi); assay: Test G Pre-Emergence Protocol; settings: Setaria faberi, pre-emergence, 312 h, evaluated after 13 days; for pest or weed control at 15.625 g/ha: 15.625 g ai/ha; for pest or weed control at 15.625 g/ha / pest or weed control at 250 g/ha: read-out: Foxtail, Giant damage rating (100=total damage to plant; 0=no damage to plant); for pest or weed control at 62.5 g/ha: 62.5 g ai/ha, 100=total damage to plant, 0=no damage to plant, read-out: plant damage rating, Foxtail, Giant; for pest or weed control at 250 g/ha: 250 g ai/ha
Summary of the method: as §1

[4] = system: ivy-leaved morning glory (Ipomoea hederacea); assay: Test G Pre-Emergence Protocol; settings: Ipomoea, pre-emergence, 312 h, evaluated after 13 days; for pest or weed control at 15.625 g/ha: 15.625 g ai/ha, read-out: Morning-glory, Ivy-leaved damage rating (100=total damage to plant; 0=no damage to plant); for pest or weed control at 62.5 g/ha: 62.5 g ai/ha, 100=total damage to plant, 0=no damage to plant, read-out: plant damage rating, Morningglory, Ivy-leaved; for pest or weed control at 250 g/ha: 250 g ai/ha, read-out: Morningglory, Ivy-leaved damage rating (100=total damage to plant; 0=no damage to plant)
Summary of the method: as §1

[5] = system: redroot pigweed (Amaranthus retroflexus); assay: Test G Pre-Emergence Protocol; settings: Amaranthus retroflexus, pre-emergence, 312 h, evaluated after 13 days; for pest or weed control at 15.625 g/ha: 15.625 g ai/ha; for pest or weed control at 15.625 g/ha / pest or weed control at 250 g/ha: read-out: Pigweed, Redroot damage rating (100=total damage to plant; 0=no damage to plant); for pest or weed control at 62.5 g/ha: 62.5 g ai/ha, 100=total damage to plant, 0=no damage to plant, read-out: plant damage rating, Pigweed, Redroot; for pest or weed control at 250 g/ha: 250 g ai/ha
Summary of the method: as §1

[6] = system: velvetleaf (Abutilon theophrasti); assay: Test G Pre-Emergence Protocol; settings: Abutilon theophrasti, pre-emergence, 312 h, evaluated after 13 days; for pest or weed control at 15.625 g/ha: 15.625 g ai/ha; for pest or weed control at 15.625 g/ha / pest or weed control at 250 g/ha: read-out: Velvetleaf damage rating (100=total damage to plant; 0=no damage to plant); for pest or weed control at 62.5 g/ha: 62.5 g ai/ha, 100=total damage to plant, 0=no damage to plant, read-out: plant damage rating, Velvetleaf; for pest or weed control at 250 g/ha: 250 g ai/ha
Summary of the method: as §1

[7] = system: barnyardgrass (Echinochloa crus-galli); assay: Test G Post-Emergence Protocol; settings: Echinochloa crus-galli, post-emergence, 312 h; for pest or weed control at 15.625 g/ha: 15.625 g ai/ha, evaluated after 13 days (100=total damage to plant; 0=no damage to plant), read-out: Barnyardgrass damage rating; for pest or weed control at 62.5 g/ha: 62.5 g ai/ha, read-out: Barnyardgrass damage rating (100=total damage to plant; 0=no damage to plant); for pest or weed control at 62.5 g/ha / pest or weed control at 250 g/ha: evaluated after 13 days; for pest or weed control at 250 g/ha: 250 g ai/ha, read-out: damage to plant, Barnyardgrass (100=total damage to plant; 0=no damage to plant)
Summary of the method: (§2)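 Seedlings grown 8 days in soil in a glasshouse (24/16 °C day/night, 14 h light, 65% humidity) were sprayed post-emergence with compound in acetone/water 50:50 plus 0.5% Tween 20 at 15.625, 62.5 or 250 g/ha. Damage was scored after 13 days on a 0–100 scale (100 = total damage).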

corn (Zea mays) [8] = assay: Test G Post-Emergence Protocol; settings: Zea mays, post-emergence, 312 h; for plant injury at 15.625 g/ha: 15.625 g ai/ha, evaluated after 13 days (100=total damage to plant; 0=no damage to plant), read-out: Corn damage rating; for plant injury at 62.5 g/ha: 62.5 g ai/ha, read-out: Corn damage rating (100=total damage to plant; 0=no damage to plant); for plant injury at 62.5 g/ha / plant injury at 250 g/ha: evaluated after 13 days; for plant injury at 250 g/ha: 250 g ai/ha, read-out: damage to plant, Corn (100=total damage to plant; 0=no damage to plant)
Summary of the method: as §2

[9] = system: giant foxtail (Setaria faberi); assay: Test G Post-Emergence Protocol; settings: Setaria faberi, post-emergence, 312 h; for pest or weed control at 15.625 g/ha: 15.625 g ai/ha, evaluated after 13 days (100=total damage to plant; 0=no damage to plant), read-out: Foxtail, Giant damage rating; for pest or weed control at 62.5 g/ha: 62.5 g ai/ha, read-out: Foxtail, Giant damage rating (100=total damage to plant; 0=no damage to plant); for pest or weed control at 62.5 g/ha / pest or weed control at 250 g/ha: evaluated after 13 days; for pest or weed control at 250 g/ha: 250 g ai/ha, read-out: damage to plant, Foxtail, Giant (100=total damage to plant; 0=no damage to plant)
Summary of the method: as §2

[10] = system: ivy-leaved morning glory (Ipomoea hederacea); assay: Test G Post-Emergence Protocol; settings: Ipomoea, post-emergence, 312 h; for pest or weed control at 15.625 g/ha: 15.625 g ai/ha, evaluated after 13 days (100=total damage to plant; 0=no damage to plant), read-out: Morningglory, Ivy-leaved damage rating; for pest or weed control at 62.5 g/ha: 62.5 g ai/ha, read-out: Morningglory, Ivy-leaved damage rating (100=total damage to plant; 0=no damage to plant); for pest or weed control at 62.5 g/ha / pest or weed control at 250 g/ha: evaluated after 13 days; for pest or weed control at 250 g/ha: 250 g ai/ha, read-out: damage to plant, Morningglory, Ivy-leaved (100=total damage to plant; 0=no damage to plant)
Summary of the method: as §2

[11] = system: redroot pigweed (Amaranthus retroflexus); assay: Test G Post-Emergence Protocol; settings: Amaranthus retroflexus, post-emergence, 312 h; for pest or weed control at 15.625 g/ha: 15.625 g ai/ha, evaluated after 13 days (100=total damage to plant; 0=no damage to plant), read-out: Pigweed, Redroot damage rating; for pest or weed control at 62.5 g/ha: 62.5 g ai/ha, read-out: Pigweed, Redroot damage rating (100=total damage to plant; 0=no damage to plant); for pest or weed control at 62.5 g/ha / pest or weed control at 250 g/ha: evaluated after 13 days; for pest or weed control at 250 g/ha: 250 g ai/ha, read-out: damage to plant, Pigweed, Redroot (100=total damage to plant; 0=no damage to plant)
Summary of the method: as §2

[12] = system: velvetleaf (Abutilon theophrasti); assay: Test G Post-Emergence Protocol; settings: Abutilon theophrasti, post-emergence, 312 h; for pest or weed control at 15.625 g/ha: 15.625 g ai/ha, evaluated after 13 days (100=total damage to plant; 0=no damage to plant), read-out: Velvetleaf damage rating; for pest or weed control at 62.5 g/ha: 62.5 g ai/ha, read-out: Velvetleaf damage rating (100=total damage to plant; 0=no damage to plant); for pest or weed control at 62.5 g/ha / pest or weed control at 250 g/ha: evaluated after 13 days; for pest or weed control at 250 g/ha: 250 g ai/ha, read-out: damage to plant, Velvetleaf (100=total damage to plant; 0=no damage to plant)
Summary of the method: as §2

## CN1C[C@@H](c2ccc(C(F)(F)F)cc2)[C@H](C(=O)Nc2cccnn2)C1=O (racemic) [Compound 1577]
[1]
  pest or weed control at 15.625 g/ha: 0%
  pest or weed control at 62.5 g/ha: 0%
  pest or weed control at 250 g/ha: 0%
Corn (Zea mays) [2]
  plant injury at 15.625 g/ha: 0%
  plant injury at 62.5 g/ha: 0%
  plant injury at 250 g/ha: 0%
[3]
  pest or weed control at 15.625 g/ha: 0%
  pest or weed control at 62.5 g/ha: 0%
  pest or weed control at 250 g/ha: 0%
[4]
  pest or weed control at 15.625 g/ha: 0%
  pest or weed control at 62.5 g/ha: 0%
  pest or weed control at 250 g/ha: 0%
[5]
  pest or weed control at 15.625 g/ha: 0%
  pest or weed control at 62.5 g/ha: 0%
  pest or weed control at 250 g/ha: 0%
[6]
  pest or weed control at 15.625 g/ha: 0%
  pest or weed control at 62.5 g/ha: 0%
  pest or weed control at 250 g/ha: 0%
[7]
  pest or weed control at 15.625 g/ha: 0%
  pest or weed control at 62.5 g/ha: 0%
  pest or weed control at 250 g/ha: 0%
Corn (Zea mays) [8]
  plant injury at 15.625 g/ha: 0%
  plant injury at 62.5 g/ha: 0%
  plant injury at 250 g/ha: 0%
[9]
  pest or weed control at 15.625 g/ha: 0%
  pest or weed control at 62.5 g/ha: 0%
  pest or weed control at 250 g/ha: 0%
[10]
  pest or weed control at 15.625 g/ha: 0%
  pest or weed control at 62.5 g/ha: 0%
  pest or weed control at 250 g/ha: 0%
[11]
  pest or weed control at 15.625 g/ha: 0%
  pest or weed control at 62.5 g/ha: 0%
  pest or weed control at 250 g/ha: 0%
[12]
  pest or weed control at 15.625 g/ha: 0%
  pest or weed control at 62.5 g/ha: 0%
  pest or weed control at 250 g/ha: 0%

## Cc1n[nH]cc1NC(=O)[C@@H]1C(=O)N(C)C[C@H]1c1ccc(C(F)(F)F)cc1 (racemic) [Compound 1634]
[1]
  pest or weed control at 15.625 g/ha: 0%
  pest or weed control at 62.5 g/ha: 0%
  pest or weed control at 250 g/ha: 0%
Corn (Zea mays) [2]
  plant injury at 15.625 g/ha: 0%
  plant injury at 62.5 g/ha: 0%
  plant injury at 250 g/ha: 0%
[3]
  pest or weed control at 15.625 g/ha: 0%
  pest or weed control at 62.5 g/ha: 0%
  pest or weed control at 250 g/ha: 0%
[4]
  pest or weed control at 15.625 g/ha: 0%
  pest or weed control at 62.5 g/ha: 0%
  pest or weed control at 250 g/ha: 0%
[5]
  pest or weed control at 15.625 g/ha: 0%
  pest or weed control at 62.5 g/ha: 0%
  pest or weed control at 250 g/ha: 0%
[6]
  pest or weed control at 15.625 g/ha: 0%
  pest or weed control at 62.5 g/ha: 0%
  pest or weed control at 250 g/ha: 0%
[7]
  pest or weed control at 15.625 g/ha: 0%
  pest or weed control at 62.5 g/ha: 0%
  pest or weed control at 250 g/ha: 0%
Corn (Zea mays) [8]
  plant injury at 15.625 g/ha: 0%
  plant injury at 62.5 g/ha: 0%
  plant injury at 250 g/ha: 0%
[9]
  pest or weed control at 15.625 g/ha: 0%
  pest or weed control at 62.5 g/ha: 0%
  pest or weed control at 250 g/ha: 20%
[10]
  pest or weed control at 15.625 g/ha: 0%
  pest or weed control at 62.5 g/ha: 0%
  pest or weed control at 250 g/ha: 0%
[11]
  pest or weed control at 15.625 g/ha: 0%
  pest or weed control at 62.5 g/ha: 0%
  pest or weed control at 250 g/ha: 0%
[12]
  pest or weed control at 15.625 g/ha: 0%
  pest or weed control at 62.5 g/ha: 0%
  pest or weed control at 250 g/ha: 0%
